# In paper PMC3558932 (Chemistry & biology, 2013):
# Legend:
# Rv0036c = Rv0036c (Mycobacterium tuberculosis, UniProt P9WM91)
# Rv0831c = Rv0831c (Mycobacterium tuberculosis, UniProt O53842)
# Rv0282 = Rv0282 (Mycobacterium tuberculosis, UniProt P9WPI3); settings: 20 uM probe, lysate in PBS, 37 °C, 1 h; covalent
# Rv0941c = Rv0941c (Mycobacterium tuberculosis, UniProt P71568); settings: 20 uM probe, lysate in PBS, 37 °C, 1 h; covalent
# Chain of Rv0036c (P9WM91 whole entry): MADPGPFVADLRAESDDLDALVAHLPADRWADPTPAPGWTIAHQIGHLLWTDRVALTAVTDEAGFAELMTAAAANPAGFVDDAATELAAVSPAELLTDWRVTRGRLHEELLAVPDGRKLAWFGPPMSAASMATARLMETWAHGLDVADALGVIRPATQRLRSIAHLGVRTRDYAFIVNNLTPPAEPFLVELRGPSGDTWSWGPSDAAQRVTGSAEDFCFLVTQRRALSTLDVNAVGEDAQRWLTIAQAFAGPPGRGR
# Chain of Rv0282 (P9WPI3 whole entry, looked up): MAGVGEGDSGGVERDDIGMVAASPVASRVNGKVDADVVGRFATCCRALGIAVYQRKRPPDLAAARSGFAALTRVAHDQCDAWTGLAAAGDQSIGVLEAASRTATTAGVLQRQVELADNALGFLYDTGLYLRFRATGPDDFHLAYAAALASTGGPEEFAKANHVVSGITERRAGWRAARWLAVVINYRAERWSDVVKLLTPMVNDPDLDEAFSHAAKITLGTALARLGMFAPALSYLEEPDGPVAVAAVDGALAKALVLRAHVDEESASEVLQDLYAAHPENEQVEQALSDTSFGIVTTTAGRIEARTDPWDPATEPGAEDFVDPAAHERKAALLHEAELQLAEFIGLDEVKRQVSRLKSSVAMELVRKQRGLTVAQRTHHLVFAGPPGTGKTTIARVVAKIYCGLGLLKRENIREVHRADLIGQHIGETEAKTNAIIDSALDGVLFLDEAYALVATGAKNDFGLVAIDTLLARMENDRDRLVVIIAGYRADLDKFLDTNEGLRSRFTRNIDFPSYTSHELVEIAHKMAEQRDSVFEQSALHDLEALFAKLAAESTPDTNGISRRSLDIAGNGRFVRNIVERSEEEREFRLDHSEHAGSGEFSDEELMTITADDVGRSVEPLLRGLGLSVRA
molecule,measurement,setting,value
Nc1ncnc2c1ncn2[C@@H]1O[C@H](COP(=O)(O)OP(=O)(O)OP(O)(O)=S)[C@@H](O)[C@H]1O [ATPγS],"competition with ATP-ABP labelling, gel fluorescence",Rv0036c,ATP and ATPγS competed with probe binding
same,"competition with ATP-ABP labelling, gel fluorescence",Rv0831c,ATP and ATPγS competed with probe binding
ATP-ABP,fold enrichment over negative control,Rv0282,4 fold
same,fold enrichment over control,Rv0941c,15 fold
Nc1ncnc2c1ncn2[C@@H]1O[C@H](COP(=O)(O)OP(=O)(O)OP(=O)(O)O)[C@@H](O)[C@H]1O [ATP],"competition with ATP-ABP labelling, gel fluorescence",Rv0036c,ATP and ATPγS competed with probe binding
same,"competition with ATP-ABP labelling, gel fluorescence",Rv0831c,ATP and ATPγS competed with probe binding
